In one test the test system is Aβ total. As to the kind of experiment: Aβ total levels in H4 neuroglioma cells stably expressing human APP695 (MSD electrochemiluminescence). The format is cell-based. The following applies: selectivity ratio vs. Aβtotal. On the procedure: Cells were plated out to near confluency. The compounds to be tested were received as 10 mM stocks in 100% DMSO. A dilution series was initially generated in 100% DMSO and then diluted 200-fold in cell culture media such that the tested concentration range was 30 μM to 0.1 nM and the final DMSO concentration was 0.5%. The diluted compounds were incubated with the cells for 22 hours in an incubator at 37° C. and 5% CO2. Aβ42 levels were measured post-incubation from the supernatant of the cells using an Aβ42 specific electrochemiluminescence assay provided by Meso Scale Discovery (Catalog #L21CA-1). The measurement of Aβ42 levels were performed according to the manufacturer's protocol.
Aβ total levels were likewise determined using a specific electrochemiluminescence assay provided by Meso Scale Discovery (Catalog #L21ZA-1) according to the manufacturer's protocol.

The next test has as its target T1, MAP4K2 (GCK) (Homo sapiens, UniProt Q12851).
T1 sequence (Q12851 1-820): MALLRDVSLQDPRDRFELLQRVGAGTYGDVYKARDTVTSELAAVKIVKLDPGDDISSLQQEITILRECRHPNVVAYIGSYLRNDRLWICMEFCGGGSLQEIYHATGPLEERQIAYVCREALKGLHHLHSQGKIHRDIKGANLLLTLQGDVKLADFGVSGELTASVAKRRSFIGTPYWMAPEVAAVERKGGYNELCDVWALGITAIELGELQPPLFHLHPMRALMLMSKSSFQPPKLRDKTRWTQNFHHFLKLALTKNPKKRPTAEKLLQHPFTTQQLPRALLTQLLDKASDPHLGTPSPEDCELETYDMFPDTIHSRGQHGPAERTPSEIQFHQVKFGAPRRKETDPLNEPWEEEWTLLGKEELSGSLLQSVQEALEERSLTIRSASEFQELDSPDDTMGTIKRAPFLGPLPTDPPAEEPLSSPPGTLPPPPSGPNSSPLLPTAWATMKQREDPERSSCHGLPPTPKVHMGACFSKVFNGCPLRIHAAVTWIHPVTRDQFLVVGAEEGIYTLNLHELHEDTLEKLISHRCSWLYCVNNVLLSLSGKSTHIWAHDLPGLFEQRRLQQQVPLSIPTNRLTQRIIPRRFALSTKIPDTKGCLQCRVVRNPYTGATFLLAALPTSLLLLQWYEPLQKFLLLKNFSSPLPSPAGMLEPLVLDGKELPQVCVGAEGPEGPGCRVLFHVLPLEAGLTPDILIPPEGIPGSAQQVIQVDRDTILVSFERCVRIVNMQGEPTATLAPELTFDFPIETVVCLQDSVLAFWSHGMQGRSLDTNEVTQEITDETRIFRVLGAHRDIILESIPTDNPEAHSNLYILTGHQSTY
Description: Z'-LYTE SelectScreen biochemical kinase assay MAP4K2 (GCK). The source says: Thermo Fisher Scientific SelectScreen™ Biochemical Kinase Profiling Service Z′-LYTE™ Screening Protocol and Assay Conditions Assay Theory
The […] biochemical assay employs a fluorescence-based, coupled-enzyme format and is based on the differential sensitivity of phosphorylated and non-phosphorylated peptides to proteolytic cleavage. The peptide substrate is labeled with two fluorophores—one at each end—that make up a FRET pair. In the primary reaction, the kinase transfers the gamma-phosphate of ATP to a single tyrosine, serine or threonine residue in a synthetic FRET-peptide. In the secondary reaction, a site-specific protease recognizes and cleaves non-phosphorylated FRET-peptides. Phosphorylation of FRET-peptides suppresses cleavage by the Development Reagent. Cleavage disrupts FRET between the donor (i.e., coumarin) and acceptor (i.e., fluorescein) fluorophores on the FRET-peptide, whereas uncleaved, phosphorylated FRET-peptides maintain FRET. A ratiometric method, which calculates the ratio (Emission Ratio=Coumarin emission (445 nm)/Fluorescein emission (520 nm)) of donor emission to acceptor emission after excitation of the donor fluorophore at 400 nm, is used to quantitate reaction progress, as shown in the equation below. A significant benefit of this ratiometric method for quantitating reaction progress is the elimination of well-to-well variations in FRET-peptide concentration and signal intensities. As a result, the assay yields very high Z′-factor values (>0.7) at a low percent phosphorylation. Both cleaved and uncleaved FRET-peptides contribute to the fluorescence signals and therefore to the Emission Ratio. The extent of phosphorylation of the FRET-peptide can be calculated from the Emission Ratio. The Emission Ratio will remain low if the FRET-peptide is phosphorylated (i.e., no kinase inhibition) and will be high if the FRET-peptide is non-phosphorylated (i.e., kinase inhibition).
The Test Compounds are screened in 1% DMSO (final) in the well. For 10 point titrations, 3-fold serial dilutions are conducted from the starting concentration of the customer's choosing.
All Peptide/Kinase Mixtures are diluted to a 2× working concentration in the appropriate Kinase Buffer (see section Kinase Specific Assay Conditions for a complete description).
All ATP Solutions are diluted to a 4× working concentration in Kinase Buffer (50 mM HEPES pH 7.5, 0.01% BRIJ-35, 10 mM MgCl2, 1 mM EGTA). ATP Km apparent is previously determined using a Z″-LYTE assay.
The Development Reagent is diluted in Development Buffer (see section Kinase-Specific Assay Conditions—Direct and Cascade for a complete description).
Bar-coded Corning, low volume NBS, black 384-well plate (Corning Cat. #4514) • 1. 100 nL—100× Test Compound in 100% DMSO • 2. 2.4 μL—Kinase buffer • 3. 5 μL—2× Peptide/Kinase Mixture • 4. 2.5 μL—4×ATP Solution • 5. 30—second plate shake • 6. 60—minute Kinase Reaction incubation at room temperature • 7. 5 μL—Development Reagent Solution • 8. 30—second plate shake • 9. 60—minute Development Reaction incubation at room temperature • 10. Read on fluorescence plate reader and analyze the data Z′-LYTE Assay Controls
SelectScreen Kinase Profiling Service uses XLfit from IDBS. The dose response curve is curve fit to model number 205 (sigmoidal dose-response model).
The 2×MAP4K2 (GCK)/Ser/Thr 07 mixture is prepared in 50 mM HEPES pH 7.5, 0.01% BRIJ-35, 10 mM MgCl2, 1 mM EGTA. The final 10 μL Kinase Reaction consists of 0.11-3 ng MAP4K2 (GCK) and 2 μM Ser/Thr 07 in 50 mM HEPES pH 7.5, 0.01% BRIJ-35, 10 mM MgCl2, 1 mM EGTA. After the 1 hour Kinase Reaction incubation, 5 μL of a 1:45000 dilution of Development Reagent A is added.

Where [1] appears, read: 10 μmolar compound concentration, ATP at Km app, read-out: MAP4K2 (GCK) inhibition.
The mark [2] stands for this setting: read-out: % Inhibition mean MAP4K2 (GCK).

Like-named read-outs stand apart in the source and are kept apart here.

As a reminder, the inhibition is the relative decrease from the control value, in per cent. Consider `CCn1ncc2c1CCC(Nc1nc3c(-c4ccc(F)cc4C)cccn3n1)C2` (centres unmarked) [Example 42, (1-Ethyl-4,5,6,7-tetrahydro-1H-indazol-5-yl)-[8-(4-fluoro-2-methyl-phenyl)-[1,2,4]triazolo[1,5-a]pyridine-2-yl]-amine], for which the “Ratio AβTotal IC50/Aβ42 IC50” value in the test with Aβ total (Table 4a) came out at 23. The inhibition at 10 µM on MAP4K2 (GCK) (setting [1]) is below 40%; on MAP4K2 (GCK) (setting [2]) it was 21%.

On to `CCn1ncc2c1CCC(Nc1nc3c(-c4cccc(Cl)c4)cccn3n1)C2` (centres unmarked) [Example 59, [8-(3-Chloro-phenyl)-[1,2,4]triazolo[1,5-a]pyridine-2-yl]-(1-ethyl-4,5,6,7-tetrahydro-1H-indazol-5-yl)-amine], for which the “Ratio AβTotal IC50/Aβ42 IC50” value in the test with Aβ total (Table 4a) is 49. Further, the inhibition at 10 µM was below 40% on MAP4K2 (GCK) (setting [1]) and 22% at MAP4K2 (GCK) (setting [2]).

`CCn1ncc2c1CCC(Nc1nc3c(-c4ccccc4C)cccn3n1)C2` (centres unmarked) [Example 56, (1-Ethyl-4,5,6,7-tetrahydro-1H-indazol-5-yl)-[8-(2-methyl-phenyl)-[1,2,4]triazolo[1,5-a]pyridine-2-yl]-amine]: in the test with Aβ total (Table 4a), the “Ratio AβTotal IC50/Aβ42 IC50” value worked out at 49. Also, the inhibition at 10 µM was below 40% at MAP4K2 (GCK) (setting [1]) and 16% on MAP4K2 (GCK) (setting [2]).

In the case of `CCn1ncc2c1CCC(Nc1nc3c(-c4cccnc4)cccn3n1)C2` (centres unmarked) [Example 63, (1-Ethyl-4,5,6,7-tetrahydro-1H-indazol-5-yl)-(8-pyridin-3-yl-[1,2,4]triazolo[1,5-a]pyridine-2-yl)-amine], the “Ratio AβTotal IC50/Aβ42 IC50” value in the test on Aβ total (Table 4a) came to 85. Also, the inhibition at 10 µM on MAP4K2 (GCK) (setting [1]) was below 40%; on MAP4K2 (GCK) (setting [2]) it was 14%.

As for `Cc1cc(F)ccc1-c1cccn2nc(NC3CCc4c(cnn4C(C)C)C3)nc12` (centres unmarked) [Example 44, [8-(4-fluoro-2-methyl-phenyl)-[1,2,4]triazolo[1,5-a]pyridine-2-yl]-(1-isopropyl-4,5,6,7-tetrahydro-1H-indazol-5-yl)-amine], the “Ratio AβTotal IC50/Aβ42 IC50” value in the test on Aβ total (Table 4a) is recorded as 64. Further, the values for the inhibition at 10 µM at MAP4K2 (GCK) (setting [1]) and on MAP4K2 (GCK) (setting [2]) were below 40% and 26%, respectively.

Turning to `CCn1nnc2c1CCC(Nc1nc3c(-c4ccc(F)cc4C)cccn3n1)C2` (centres unmarked) [Example 51, (1-Ethyl-4,5,6,7-tetrahydro-1H-benzotriazol-5-yl)-[8-(4-fluoro-2-methyl-phenyl)-[1,2,4]triazolo[1,5-a]pyridine-2-yl]-amine], in the test on Aβ total (Table 4a), the “Ratio AβTotal IC50/Aβ42 IC50” value worked out at 2. For the same compound, the inhibition at 10 µM was below 40% at MAP4K2 (GCK) (setting [1]) and 22% at MAP4K2 (GCK) (setting [2]).

Take `CCn1ncc2c1CCC(Nc1nc3c(-c4cncc(OC)c4)cccn3n1)C2` (centres unmarked) [Example 70, (1-Ethyl-4,5,6,7-tetrahydro-1H-indazol-5-yl)-[8-(5-methoxy-pyridin-3-yl)-[1,2,4]triazolo[1,5-a]pyridine-2-yl]-amine]: in the test with Aβ total (Table 4a), the “Ratio AβTotal IC50/Aβ42 IC50” value is given as 60. Also, the results for the inhibition at 10 µM at MAP4K2 (GCK) (setting [1]) and on MAP4K2 (GCK) (setting [2]) were below 40% and 7%, respectively.

For `CCn1ncc2c1CCC(Nc1nc3c(-c4ccc(OC)nc4)cccn3n1)C2` (centres unmarked) [Example 71, (1-Ethyl-4,5,6,7-tetrahydro-1H-indazol-5-yl)-[8-(6-methoxy-pyridin-3-yl)-[1,2,4]triazolo[1,5-a]pyridine-2-yl]-amine], in the test on Aβ total (Table 4a), the “Ratio AβTotal IC50/Aβ42 IC50” value is recorded as 332. Further, the inhibition at 10 µM on MAP4K2 (GCK) (setting [1]) is below 40%; at MAP4K2 (GCK) (setting [2]), 26%.

Regarding `CCn1ncc2c1CC[C@@H](Nc1nc3c(-c4ccc(F)c(Cl)c4)cccn3n1)C2` [Example R-61, (R)-[8-(3-Chloro-4-fluoro-phenyl)-[1,2,4]triazolo[1,5-a]pyridine-2-yl]-(1-ethyl-4,5,6,7-tetrahydro-1H-indazol-5-yl)-amine], the “Ratio AβTotal IC50/Aβ42 IC50” value with Aβ total (Table 4a) is 1098. In addition, the inhibition at 10 µM on MAP4K2 (GCK) (setting [1]) was below 40%; at MAP4K2 (GCK) (setting [2]), 3%.

As to `CCn1ncc2c1CCC(Nc1nc3c(-c4ccc(F)cc4)cccn3n1)C2` (centres unmarked) [Example 55, (1-Ethyl-4,5,6,7-tetrahydro-1H-indazol-5-yl)-[8-(4-fluoro-phenyl)-[1,2,4]triazolo[1,5-a]pyridine-2-yl]-amine], the “Ratio AβTotal IC50/Aβ42 IC50” value in the test with Aβ total (Table 4a) is given as 120. In addition, the figures for the inhibition at 10 µM on MAP4K2 (GCK) (setting [1]) and at MAP4K2 (GCK) (setting [2]) were below 40% and 30%, respectively.

As for `CCCCCn1ncc2c1CCC(Nc1nc3c(-c4ccc(F)cc4C)cccn3n1)C2` (centres unmarked) [Example 47, [8-(4-fluoro-2-methyl-phenyl)-[1,2,4]triazolo[1,5-a]pyridine-2-yl]-(1-pentyl-4,5,6,7-tetrahydro-1H-indazol-5-yl)-amine], the “Ratio AβTotal IC50/Aβ42 IC50” value in the test with Aβ total (Table 4a) is listed as 1. Further, the values for the inhibition at 10 µM on MAP4K2 (GCK) (setting [1]) and on MAP4K2 (GCK) (setting [2]) were below 40% and 11%, respectively.

Regarding `CCn1ncc2c1CCC(Nc1nc3c(-c4ccccc4)cccn3n1)C2` (centres unmarked) [Example 57, (1-Ethyl-4,5,6,7-tetrahydro-1H-indazol-5-yl)-(8-phenyl-[1,2,4]triazolo[1,5-a]pyridine-2-yl)-amine], the “Ratio AβTotal IC50/Aβ42 IC50” value with Aβ total (Table 4a) is on record as 104. The inhibition at 10 µM is below 40% on MAP4K2 (GCK) (setting [1]) and 13% at MAP4K2 (GCK) (setting [2]).

Consider `CC1(C)C(=O)Nc2ccc(Nc3nc4c(-c5cccc(F)c5)cccn4n3)cc21` [Cpd. 263 in WO09155551, reference compound], for which the “Ratio AβTotal IC50/Aβ42 IC50” value with Aβ total (prior art compounds, Table 4b) stood at 2. Besides, the values for the inhibition at 10 µM on MAP4K2 (GCK) (setting [1]) and at MAP4K2 (GCK) (read-out: % Inhibition mean) were above 80% and 98%, respectively.

For the compound `Fc1cccc(-c2cccn3nc(Nc4ccc5[nH]cnc5c4)nc23)c1` [Cpd. 293 in WO09155551, reference compound], the “Ratio AβTotal IC50/Aβ42 IC50” value in the test with Aβ total (prior art compounds, Table 4b) stood at 1. For the same compound, the results for the inhibition at 10 µM on MAP4K2 (GCK) (setting [1]) and on MAP4K2 (GCK) (read-out: % Inhibition mean) were above 80% and 94%, respectively.

For `CCn1ncc2c1CC[C@@H](Nc1nc3c(-c4ccc(F)cc4C)cccn3n1)C2` [Example R-42, (R)-(1-Ethyl-4,5,6,7-tetrahydro-1H-indazol-5-yl)-[8-(4-fluoro-2-methyl-phenyl)-[1,2,4]triazolo[1,5-a]pyridine-2-yl]-amine], the inhibition at 10 µM on MAP4K2 (GCK) (setting [1]) was below 40%; on MAP4K2 (GCK) (setting [2]) it was 25%.

These data come from patent publication US11339161B2, “Triazolo pyridines as modulators of gamma-secretase” (Boehringer Ingelheim International GmbH, priority 2017, dated 2022).
